Data taken from ChEMBL document CHEMBL1649218, “New treatment option for second-stage African sleeping sickness: in vitro and in vivo efficacy of aza analogs of DB289” (Antimicrob Agents Chemother, 2009).
Converted amounts (≈) assume the structure as drawn. The source made the active and inactive calls. The rule behind the calls is not given here.

Key:
[1] = test system: Trypanosoma brucei rhodesiense; assay: Antitrypanosomal activity against pentamidine-resistant Trypanosoma brucei rhodesiense STIB900 by Alamar blue assay; format: functional, organism-based
[2] = test system: Trypanosoma brucei brucei; assay: Antitrypanosomal activity against Trypanosoma brucei brucei GVR35 infected in NMRI mouse CNS model assessed as cure from infection at 20 mg/kg, ip for 5 days; format: functional, organism-based; set-up: dose 20 mg/kg
[3] = Ratio of IC50 for Trypanosoma brucei gambiense STIB930 to IC50 for wild-type Trypanosoma brucei rhodesiense […]; format: functional
[4] = test system: Trypanosoma brucei rhodesiense; assay: Antitrypanosomal activity against wild-type Trypanosoma brucei rhodesiense STIB900 by Alamar blue assay; format: functional, organism-based
[5] = test system: Trypanosoma brucei brucei; assay: Antitrypanosomal activity against Trypanosoma brucei brucei GVR35 infected in NMRI mouse CNS model assessed as survival of mouse at 10 mg/kg, ip for 10 days; format: functional; settings: route intraperitoneal
[6] = test system: Trypanosoma brucei gambiense; assay: Ratio of IC50 for Trypanosoma brucei gambiense K03048 to IC50 for Trypanosoma brucei gambiense STIB930; format: functional
[7] = Ratio of IC50 for Trypanosoma brucei gambiense K03048 to IC50 for wild-type Trypanosoma brucei rhodesiense STIB900; format: functional
[8] = test system: Trypanosoma brucei rhodesiense; assay: Ratio of IC50 for melasoprol-resistant Trypanosoma brucei rhodesiense STIB900 to IC50 for wild-type Trypanosoma brucei rhodesiense […]; format: functional
[9] = test system: Trypanosoma brucei brucei; assay: Antitrypanosomal activity against Trypanosoma brucei brucei BS221 by Alamar blue assay; format: functional, organism-based
[10] = test system: Trypanosoma brucei gambiense; assay: Antitrypanosomal activity against Trypanosoma brucei gambiense K03048 by Alamar blue assay; format: functional, organism-based
[11] = test system: Trypanosoma brucei rhodesiense; assay: Antitrypanosomal activity against melasoprol-resistant Trypanosoma brucei rhodesiense STIB900 by Alamar blue assay; format: functional, organism-based
[12] = Ratio of IC50 for Trypanosoma brucei gambiense ITMAP141267 to IC50 for wild-type Trypanosoma brucei rhodesiense […]; format: functional
[13] = test system: Trypanosoma brucei rhodesiense; assay: Antitrypanosomal activity against wild-type Trypanosoma brucei rhodesiense STIB900 infected in NMRI mouse assessed as survival of mouse at 20 mg/kg, ip for 4 days; format: functional; settings: route intraperitoneal
[14] = test system: Trypanosoma brucei brucei; assay: Antitrypanosomal activity against Trypanosoma brucei brucei GVR35 infected in NMRI mouse CNS model assessed as survival of mouse at 20 mg/kg, ip for 5 days; format: functional; settings: route intraperitoneal
[15] = test system: Trypanosoma brucei rhodesiense; assay: Antitrypanosomal activity against wild-type Trypanosoma brucei rhodesiense STIB900 infected in NMRI mouse assessed as survival of mouse at 5 mg/kg, ip for 4 days; format: functional; settings: route intraperitoneal
[16] = test system: Trypanosoma brucei brucei; assay: Antitrypanosomal activity against Trypanosoma brucei brucei AT1KO by Alamar blue assay; format: functional, organism-based
[17] = test system: Trypanosoma brucei gambiense; assay: Antitrypanosomal activity against Trypanosoma brucei gambiense STIB930 by Alamar blue assay; format: functional, organism-based
[18] = test system: Trypanosoma brucei rhodesiense; assay: Ratio of IC50 for pentamidine-resistant Trypanosoma brucei rhodesiense STIB900 to IC50 for wild-type Trypanosoma brucei rhodesiense STIB900; format: functional
[19] = test system: Trypanosoma brucei gambiense; assay: Antitrypanosomal activity against Trypanosoma brucei gambiense ITMAP141267 by Alamar blue assay; format: functional, organism-based
[20] = test system: Mus musculus; assay: Toxicity in NMRI mouse CNS model at 25 mg/kg, ip for 10 days; format: organism-based; set-up: dose 25 mg/kg, route intraperitoneal; settings: in vivo, 240 h
[21] = test system: Trypanosoma brucei brucei; assay: Ratio of IC50 for Trypanosoma brucei brucei AT1KO to IC50 for Trypanosoma brucei brucei BS221; format: functional
[22] = test system: Trypanosoma brucei rhodesiense; assay: Antitrypanosomal activity against wild-type Trypanosoma brucei rhodesiense STIB900 infected in NMRI mouse assessed as survival of mouse at 15 mg/kg, po for 4 days; format: functional
[23] = test system: Trypanosoma brucei rhodesiense; assay: Antitrypanosomal activity against wild-type Trypanosoma brucei rhodesiense STIB900 infected in NMRI mouse assessed as survival of mouse at 50 mg/kg, po for 4 days; format: functional
[24] = test system: Trypanosoma brucei rhodesiense; assay: Antitrypanosomal activity against wild-type Trypanosoma brucei rhodesiense STIB900 infected in NMRI mouse assessed as cure from infection at 15 mg/kg, po for 4 days; format: functional, organism-based; set-up: dose 15 mg/kg
[25] = test system: Trypanosoma brucei rhodesiense; assay: Antitrypanosomal activity against wild-type Trypanosoma brucei rhodesiense STIB900 infected in NMRI mouse assessed as survival of mouse at 75 mg/kg, po for 4 days; format: functional
[26] = test system: Trypanosoma brucei rhodesiense; assay: Antitrypanosomal activity against wild-type Trypanosoma brucei rhodesiense STIB900 infected in NMRI mouse assessed as cure from infection at 75 mg/kg, po for 4 days; format: functional, organism-based; set-up: dose 75 mg/kg

For `N=C(N)c1ccc(-c2ccc(-c3ccc(C(=N)N)cc3)o2)cc1` [FURAMIDINE], the IC50 [1] was 0.0143 µg/mL (≈ 0.047 µM), the Activity [2] was “inactive” and the Ratio IC50 [3] was 5.3. For the same compound, the IC50 [4] was 1 ng/mL (≈ 0.00329 µM), the MSD [5] was over 112 days and the “Ratio IC50” value [6] was 14. The Ratio IC50 [7] was 4.3, the “Ratio IC50” value [8] was 19.5 and the IC50 [9] was 1.2 ng/mL (≈ 0.00394 µM). The IC50 [10] was 4.2 ng/mL (≈ 0.0138 µM), the IC50 [11] was 0.019 µg/mL (≈ 0.0624 µM) and the Ratio IC50 [12] was 3.2. It also gave an MSD [13] of over 57.75 days, an MSD [14] of over 132.3 days and an MSD [15] of over 46 days. The IC50 [16] was 0.0158 µg/mL (≈ 0.0519 µM), the IC50 [17] was 5.1 ng/mL (≈ 0.0168 µM) and the “Ratio IC50” value [18] was 14.7. The IC50 [19] was 3.1 ng/mL (≈ 0.0102 µM), the Activity [20] was “Toxic” and the “Ratio IC50” value [21] was 13.1.

In the case of `CO/N=C(/N)c1ccc(-c2ccc(-c3ccc(/C(N)=N/O)cc3)o2)cc1`, the MSD [22] is reported as 30.25 days, the MSD [23] is reported as over 56 days and the Activity [24] is reported as “inactive”.

In the case of `N/C(=N\O)c1ccc(-c2ccc(-c3ccc(/C(N)=N\O)cn3)o2)nc1`, the MSD [25] is reported as 18 days and the Activity [26] is reported as “inactive”.
